Reference: US12083124B2 (Incyte Corporation, priority 2019, dated 2024)
Like-named read-outs stand apart in the source and are kept apart here.

What was measured:
[1] = target: wild-type un-phosphorylated FGFR3 (Homo sapiens, UniProt P22607); test: FGFR Enzymatic Assay (FRET peptide phosphorylation), FGFR3
Description: The inhibitor potency of the exemplified compounds was determined in an enzyme discontinuous assay that measures peptide phosphorylation using FRET measurements to detect product formation. Inhibitors were serially diluted in DMSO and a volume of 0.2 μL was transferred to the wells of a 384-well plate. […] Appropriate controls (enzyme blank and enzyme with no inhibitor) were included on the plate. […] The 10 μL/well reaction concentration of the peptide substrate was 500 nM whereas the ATP concentration was maintained near or below the ATP Km. The ATP Km values were pre-determined in a separate series of experiments. The reaction plate was incubated at 25° C. for 1 hr and the reactions were ended with the addition of 5 μL/well of quench solution (50 mM Tris, 150 mM NaCl, 0.5 mg/mL BSA, pH 7.8; 45 mM EDTA, 600 nM staurosporin, with Perkin Elmer Lance Reagents at 3.75 nM Eu-antibody PY20 and 180 nM APC-Streptavidin). The plate was allowed to equilibrate for ˜10 minutes at ambient temperature before scanning on a PheraStar plate reader (BMG Labtech) instrument.
Either GraphPad prism or XLfit was used to analyze the data. The IC50 values were derived by fitting the data to a four parameter logistic equation producing a sigmoidal dose-response curve with a variable Hill coefficient. Prism equation: Y=Bottom+(Top-Bottom)/(1+10^((Log IC50-X)*Hill slope)); XLfit equation: Y=(A+((B−A)/(1+((X/C)^D)))) where X is the logarithm of inhibitor concentration and Y is the response.
GraphPad prism3 was used to analyze the data. The IC50 values were derived by fitting the data to the equation for a sigmoidal dose-response with a variable slope. Y=Bottom+(Top-Bottom)/(1+10^((Log IC50-X)*Hill Slope)) where X is the logarithm of concentration and Y is the response.

[2] = target: wild-type un-phosphorylated FGFR1 (Homo sapiens, UniProt P11362); test: FGFR Enzymatic Assay (FRET peptide phosphorylation), FGFR1; settings: pre-incubated for 4 hours
[3] = target: wild-type un-phosphorylated FGFR2 (Homo sapiens, UniProt P21802); test: FGFR Enzymatic Assay (FRET peptide phosphorylation), FGFR2
[4] = FGFR1, wild-type un-phosphorylated FGFR1
[5] = read-out: FGFR3, wild-type un-phosphorylated FGFR3, pre-incubated for 4 hours
[6] = read-out: FGFR1, wild-type un-phosphorylated FGFR1
[7] = read-out: FGFR2, wild-type un-phosphorylated FGFR2, pre-incubated for 4 hours

Chain of wild-type un-phosphorylated FGFR1 (P11362 22-822): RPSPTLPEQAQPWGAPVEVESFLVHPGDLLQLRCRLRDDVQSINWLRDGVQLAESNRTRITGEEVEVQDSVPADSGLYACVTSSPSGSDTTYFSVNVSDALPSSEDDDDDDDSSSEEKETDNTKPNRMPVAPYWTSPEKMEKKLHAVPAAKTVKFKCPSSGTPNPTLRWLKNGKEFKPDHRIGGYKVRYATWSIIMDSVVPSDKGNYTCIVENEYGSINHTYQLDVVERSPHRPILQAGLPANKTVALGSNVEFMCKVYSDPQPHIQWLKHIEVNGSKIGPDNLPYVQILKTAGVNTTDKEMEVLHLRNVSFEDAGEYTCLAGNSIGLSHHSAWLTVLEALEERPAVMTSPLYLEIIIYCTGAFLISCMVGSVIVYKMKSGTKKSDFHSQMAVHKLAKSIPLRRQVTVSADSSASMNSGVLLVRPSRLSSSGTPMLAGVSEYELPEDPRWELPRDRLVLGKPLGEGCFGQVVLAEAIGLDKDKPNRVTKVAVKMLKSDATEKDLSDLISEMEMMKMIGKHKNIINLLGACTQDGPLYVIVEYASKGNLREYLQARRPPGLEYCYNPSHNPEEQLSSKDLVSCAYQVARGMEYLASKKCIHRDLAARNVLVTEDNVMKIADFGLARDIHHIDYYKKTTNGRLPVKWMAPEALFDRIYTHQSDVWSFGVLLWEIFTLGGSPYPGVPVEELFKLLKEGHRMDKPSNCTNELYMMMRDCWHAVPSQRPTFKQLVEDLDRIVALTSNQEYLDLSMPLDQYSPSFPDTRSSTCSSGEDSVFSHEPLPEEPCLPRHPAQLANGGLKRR
Chain of wild-type un-phosphorylated FGFR3 (P22607 23-806): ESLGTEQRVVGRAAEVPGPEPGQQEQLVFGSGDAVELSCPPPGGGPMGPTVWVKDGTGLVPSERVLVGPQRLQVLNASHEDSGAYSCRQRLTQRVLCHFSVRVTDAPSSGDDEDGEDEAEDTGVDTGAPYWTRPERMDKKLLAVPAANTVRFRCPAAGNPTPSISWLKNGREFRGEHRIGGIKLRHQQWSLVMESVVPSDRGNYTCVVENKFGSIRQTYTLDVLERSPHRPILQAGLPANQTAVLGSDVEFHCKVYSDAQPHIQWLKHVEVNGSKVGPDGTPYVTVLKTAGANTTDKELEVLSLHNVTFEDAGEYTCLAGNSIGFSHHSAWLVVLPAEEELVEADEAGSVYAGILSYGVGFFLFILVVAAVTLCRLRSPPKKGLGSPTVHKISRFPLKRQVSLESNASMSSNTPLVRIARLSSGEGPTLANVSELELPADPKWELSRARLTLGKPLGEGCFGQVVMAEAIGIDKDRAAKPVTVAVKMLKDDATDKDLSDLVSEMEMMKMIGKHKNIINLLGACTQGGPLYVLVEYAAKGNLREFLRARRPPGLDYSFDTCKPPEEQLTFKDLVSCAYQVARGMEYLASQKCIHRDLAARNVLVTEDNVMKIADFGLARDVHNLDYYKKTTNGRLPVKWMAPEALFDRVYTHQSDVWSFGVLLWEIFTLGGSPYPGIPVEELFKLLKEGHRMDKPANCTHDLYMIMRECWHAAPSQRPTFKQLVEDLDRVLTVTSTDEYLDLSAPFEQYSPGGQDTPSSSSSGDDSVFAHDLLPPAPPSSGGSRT
Chain of wild-type un-phosphorylated FGFR2 (P21802 22-821): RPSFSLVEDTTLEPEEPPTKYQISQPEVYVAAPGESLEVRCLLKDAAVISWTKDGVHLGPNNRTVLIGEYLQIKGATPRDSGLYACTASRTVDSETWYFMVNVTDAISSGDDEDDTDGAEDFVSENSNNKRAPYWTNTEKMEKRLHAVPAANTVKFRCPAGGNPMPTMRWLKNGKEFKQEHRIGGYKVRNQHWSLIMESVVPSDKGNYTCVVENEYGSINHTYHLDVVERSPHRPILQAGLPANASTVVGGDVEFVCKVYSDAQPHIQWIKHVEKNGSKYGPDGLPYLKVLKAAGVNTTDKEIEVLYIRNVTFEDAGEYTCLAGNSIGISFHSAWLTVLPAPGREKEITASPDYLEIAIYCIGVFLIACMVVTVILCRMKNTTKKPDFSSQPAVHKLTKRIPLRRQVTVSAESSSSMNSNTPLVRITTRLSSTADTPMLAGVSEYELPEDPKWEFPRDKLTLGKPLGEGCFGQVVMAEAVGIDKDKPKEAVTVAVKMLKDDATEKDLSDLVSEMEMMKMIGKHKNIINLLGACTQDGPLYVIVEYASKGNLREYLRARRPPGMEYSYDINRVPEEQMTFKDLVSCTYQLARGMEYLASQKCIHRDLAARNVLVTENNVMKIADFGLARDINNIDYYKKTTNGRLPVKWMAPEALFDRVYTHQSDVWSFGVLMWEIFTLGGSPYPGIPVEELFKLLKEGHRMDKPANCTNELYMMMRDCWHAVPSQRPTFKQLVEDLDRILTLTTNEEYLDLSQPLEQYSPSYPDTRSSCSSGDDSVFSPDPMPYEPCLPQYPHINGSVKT

IC50 [1] [nM] | IC50 [2, 4] [nM] | IC50 [3] [nM] | IC50 [1, 5] [nM] | IC50 [2, 6] [nM] | IC50 [3, 7] [nM] | Structure (SMILES)
< 6 | 40 to 100 | < 6 | – | – | – | COc1cc2[nH]nc(-c3ccc(N4C[C@@H](F)[C@@H](N)C4)nc3)c2nc1-c1cccc(C)c1C [Example 80, (3S,4R)-1-(5-(5-(2,3-Dimethylphenyl)-6-methoxy-1H-pyrazolo[4,3-b]pyridin-3-yl)pyridin-2-yl)-4-fluoropyrrolidin-3-amine]
– | – | – | < 6 | 40 to 100 | < 6 | COc1cc2[nH]nc(-c3cnn(C)c3)c2nc1-c1cccc2c1CCC2CO (single isomer, unassigned) [Example 12, (4-(6-Methoxy-3-(1-methyl-1H-pyrazol-4-yl)-1H-pyrazolo[4,3-b]pyridin-5-yl)-2,3-dihydro-1H-inden-1-yl)methanol]
< 6 | 40 to 100 | < 6 | – | – | – | [2H]C([2H])([2H])Oc1cc2[nH]nc(-c3ccc(N4CCN(C)CC4)nc3)c2nc1-c1cccc(C)c1C [Example 48, 5-(2,3-Dimethylphenyl)-6-(methoxy-d3)-3-(6-(4-methylpiperazin-1-yl)pyridin-3-yl)-1H-pyrazolo[4,3-b]pyridine]
< 6 | 40 to 100 | < 6 | – | – | – | COc1cc2[nH]nc(-c3cnn(C)c3)c2nc1-c1cccc2c1CCC2CO (single isomer, unassigned) [Example 11, (4-(6-Methoxy-3-(1-methyl-1H-pyrazol-4-yl)-1H-pyrazolo[4,3-b]pyridin-5-yl)-2,3-dihydro-1H-inden-1-yl)methanol]
< 6 | > 100 | – | – | – | 6 to 40 | COc1cc2[nH]nc(-c3ccc(N4CCN5C[C@H](O)C[C@H]5C4)nc3)c2nc1-c1cccc2c1OCCO2 [Example 91, (7R,8aS)-2-(5-(5-(2,3-Dihydrobenzo[b][1,4]dioxin-5-yl)-6-methoxy-1H-pyrazolo[4,3-b]pyridin-3-yl)pyridin-2-yl)octahydropyrrolo[1,2-a]pyrazin-7-ol]
< 6 | – | < 6 | – | 6 to 40 | – | COc1cc2[nH]nc(-c3ccc(C45CC4CN(C(=O)[C@H]4COCCN4C)C5)nc3)c2nc1-c1cccc2c1CCC2 (stereo partly drawn) [Example 192, (1-(5-(5-(2,3-Dihydro-1H-inden-4-yl)-6-methoxy-1H-pyrazolo[4,3-b]pyridin-3-yl)pyridin-2-yl)-3-azabicyclo[3.1.0]hexan-3-yl)((R)-4-methylmorpholin-3-yl)methanone]
< 6 | – | < 6 | – | 6 to 40 | – | COc1cc2[nH]nc(-c3ccc(C4CCN(C(=O)[C@H](C)O)CC4)nc3)c2nc1-c1cccc2c1CC(F)C2 (single isomer, unassigned) [Example 81]
< 6 | > 100 | < 6 | – | – | – | COc1cc2[nH]nc(-c3ccc(N4CCC(O)CC4)nc3)c2nc1-c1cccc(C)c1C [Example 46, 1-(5-(5-(2,3-Dimethylphenyl)-6-methoxy-1H-pyrazolo[4,3-b]pyridin-3-yl)pyridin-2-yl)piperidin-4-ol]
< 6 | 40 to 100 | – | – | – | 6 to 40 | Cn1cc(-c2n[nH]c3cc(Cl)c(-c4cccc5c4CC(O)C5)nc23)cn1 (single isomer, unassigned) [Example 39, 4-(6-Chloro-3-(1-methyl-1H-pyrazol-4-yl)-1H-pyrazolo[4,3-b]pyridin-5-yl)-2,3-dihydro-1H-inden-2-ol]
< 6 | – | < 6 | – | 6 to 40 | – | COc1cc2[nH]nc(-c3ccc(C4(C#N)CCN(C(=O)[C@H]5COCCN5C)CC4)nc3)c2nc1-c1cccc2c1CCC2 [Example 196, (R)-4-(5-(5-(2,3-Dihydro-1H-inden-4-yl)-6-methoxy-1H-pyrazolo[4,3-b]pyridin-3-yl)pyridin-2-yl)-1-(4-methylmorpholine-3-carbonyl)piperidine-4-carbonitrile]
< 6 | – | < 6 | – | 6 to 40 | – | COc1cc2[nH]nc(-c3ccc(C4CC(=O)N(C)C4)nc3)c2nc1-c1cccc2c1CCC2C#N (single isomer, unassigned) [Example 75, 4-(6-Methoxy-3-(6-(1-methyl-5-oxopyrrolidin-3-yl)pyridin-3-yl)-1H-pyrazolo[4,3-b]pyridin-5-yl)-2,3-dihydro-1H-indene-1-carbonitrile]
< 6 | > 100 | < 6 | – | – | – | COc1cc2[nH]nc(-c3ccc(N4CCN(CCO)CC4)nc3)c2nc1-c1cccc(CC#N)c1C [Example 89, 2-(3-(3-(6-(4-(2-Hydroxyethyl)piperazin-1-yl)pyridin-3-yl)-6-methoxy-1H-pyrazolo[4,3-b]pyridin-5-yl)-2-methylphenyl)acetonitrile]
< 6 | – | < 6 | – | 6 to 40 | – | COc1cc2[nH]nc(-c3cnn(C45CC4CN(C(=O)CO)C5)c3)c2nc1-c1cccc2c1CCC2 (stereo not drawn) [Example 197, 1-(1-(4-(5-(2,3-Dihydro-1H-inden-4-yl)-6-methoxy-1H-pyrazolo[4,3-b]pyridin-3-yl)-1H-pyrazol-1-yl)-3-azabicyclo[3.1.0]hexan-3-yl)-2-hydroxyethan-1-one]
< 6 | > 100 | – | – | – | 6 to 40 | COc1cc2[nH]nc(-c3ccc(N4CCN5C[C@H](O)C[C@H]5C4)nc3)c2nc1-c1cccc(OC)c1C [Example 90, (7R,8aS)-2-(5-(6-Methoxy-5-(3-methoxy-2-methylphenyl)-1H-pyrazolo[4,3-b]pyridin-3-yl)pyridin-2-yl)octahydropyrrolo[1,2-a]pyrazin-7-ol]
< 6 | – | < 6 | – | 6 to 40 | – | COc1cc2[nH]nc(-c3ccc(N4CCN5C[C@H](O)C[C@H]5C4)nc3)c2nc1-c1cccc2c1CC(F)C2 (stereo partly drawn) [Example 83, (7R,8aS)-2-(5-(5-(2-Fluoro-2,3-dihydro-1H-inden-4-yl)-6-methoxy-1H-pyrazolo[4,3-b]pyridin-3-yl)pyridin-2-yl)octahydropyrrolo[1,2-a]pyrazin-7-ol]
< 6 | 40 to 100 | < 6 | – | – | – | [2H]C([2H])([2H])c1cccc(-c2nc3c(-c4ccc(N5CCN(C)CC5)nc4)n[nH]c3cc2OC)c1C [Example 68, 6-Methoxy-5-(2-methyl-3-(methyl-d3)phenyl)-3-(6-(4-methylpiperazin-1-yl)pyridin-3-yl)-1H-pyrazolo[4,3-b]pyridine]
< 6 | 40 to 100 | < 6 | – | – | – | COc1cc2[nH]nc(-c3ccc(N4CCC(C)(C(=O)O)CC4)nc3)c2nc1-c1cccc(C)c1C [Example 51, 1-(5-(5-(2,3-Dimethylphenyl)-6-methoxy-1H-pyrazolo[4,3-b]pyridin-3-yl)pyridin-2-yl)-4-methylpiperidine-4-carboxylic acid]
< 6 | – | < 6 | – | 6 to 40 | – | COc1cc2[nH]nc(-c3ccc(C45CC4CN(C(=O)CO)C5)nc3)c2nc1-c1cccc2c1CCC2 (single isomer, unassigned) [Example 191B, 1-(1-(5-(5-(2,3-Dihydro-1H-inden-4-yl)-6-methoxy-1H-pyrazolo[4,3-b]pyridin-3-yl)pyridin-2-yl)-3-azabicyclo[3.1.0]hexan-3-yl)-2-hydroxyethan-1-one]
< 6 | 40 to 100 | – | – | – | 6 to 40 | COc1cc2[nH]nc(-c3ccc(OC4CCOC4)nc3)c2nc1-c1cccc2c1CC(O)C2 (single isomer, unassigned) [Example 73, 4-(6-Methoxy-3-(6-((tetrahydrofuran-3-yl)oxy)pyridin-3-yl)-1H-pyrazolo[4,3-b]pyridin-5-yl)-2,3-dihydro-1H-inden-2-ol]
< 6 | – | < 6 | – | 6 to 40 | – | COc1cc2[nH]nc(-c3ccc(C4(C#N)CCN(C(=O)[C@H]5COCCN5C)C4)nc3)c2nc1-c1cccc2c1CCC2 (stereo partly drawn) [Example 195, 3-(5-(5-(2,3-Dihydro-1H-inden-4-yl)-6-methoxy-1H-pyrazolo[4,3-b]pyridin-3-yl)pyridin-2-yl)-1-((R)-4-methylmorpholine-3-carbonyl)pyrrolidine-3-carbonitrile]
< 6 | > 100 | – | – | – | 6 to 40 | COc1cc2[nH]nc(-c3ccc(N4CCN5C[C@H](O)C[C@H]5C4)nc3)c2nc1-c1cccc2c1CCCO2 [Example 93, (7R,8aS)-2-(5-(5-(Chroman-5-yl)-6-methoxy-1H-pyrazolo[4,3-b]pyridin-3-yl)pyridin-2-yl)octahydropyrrolo[1,2-a]pyrazin-7-ol]
< 6 | > 100 | < 6 | – | – | – | COc1cc2[nH]nc(-c3ccc(N4CCC5(CC4)CNC(=O)O5)nc3)c2nc1-c1cccc(C)c1C [Example 65, 8-(5-(5-(2,3-Dimethylphenyl)-6-methoxy-1H-pyrazolo[4,3-b]pyridin-3-yl)pyridin-2-yl)-1-oxa-3,8-diazaspiro[4.5]decan-2-one]
< 6 | – | < 6 | – | 6 to 40 | – | COc1cc2[nH]nc(-c3ccc(C45CC4CN(CCO)C5)nc3)c2nc1-c1cccc2c1CCC2 (single isomer, unassigned) [Example 194B, 2-(1-(5-(5-(2,3-Dihydro-1H-inden-4-yl)-6-methoxy-1H-pyrazolo[4,3-b]pyridin-3-yl)pyridin-2-yl)-3-azabicyclo[3.1.0]hexan-3-yl)ethan-1-ol]
– | – | – | < 6 | 6 to 40 | < 6 | COc1cc2[nH]nc(-c3ccc(C4CC(=O)N(C)C4)nc3)c2nc1-c1cccc2c1CCC2C#N (single isomer, unassigned) [Example 76, 4-(6-Methoxy-3-(6-(1-methyl-5-oxopyrrolidin-3-yl)pyridin-3-yl)-1H-pyrazolo[4,3-b]pyridin-5-yl)-2,3-dihydro-1H-indene-1-carbonitrile]
